In patent US20230002387A1, “2-AMINO-S6-SUBSTITUTED THIOPURINE COMPOUNDS AS INHIBITORS OF THE ENPP1 PROTEIN” (ATEN PORUS LIFESCIENCES PVT. LTD., priority 2019, published 2023):
pKi: −log10 of the molar value. One block for each compound: values may come before it.

How the values were obtained:
LLC1 syngeneic tumor = experiment: In vivo efficacy in LLC1 syngeneic tumor model (murine Lewis lung carcinoma); design: species or system C57BL/6 mice; settings: for % TGI (vs Control): Day 15; for Tumor volume (mm^3), Mean, Day 15: SE in next cell; for Reduction of tumor volume compared among the dosing groups of the compound: IV dosing in combination with anti-PD-1 antibody (FIG. 4, 7, 10); for Effect on tumor volume in the murine Lewis lung carcinoma model: PO and IV dosing, alone or in combination with anti-PD-1 antibody (FIG. 4, 7, 10); for Tumor volume (mm^3), Mean ± SE, Day 1: baseline at start of treatment
Procedure: The anti-tumor efficacy of Compound 155, 173 and 174 was evaluated in combination with an anti-PD-1 antibody (check point inhibitor) in LLC1, a syngeneic tumor model. Compounds were administered orally at a dose of 100 mg/kg, once daily. IV doses of the compound were administered at 10 mg/kg dose, twice weekly or Q3D (Compound 155 at 2 mg/Kg IV). Anti-PD-1 antibody was administered at a dose of 200 μg/animal via IP route on days 1, 5 and 9 (Table 5).
C57BL/6 mice (female, 7-8 weeks of age) were implanted subcutaneously with 0.2×10^6 LLC1 cells (ATCC® CRL-1642^Tm) to evaluate tumor growth in a murine Lewis lung carcinoma model. Tumor-bearing animals were randomized into different treatment groups of 8 animals based on tumor size criteria of about 50-60 mm^3 and dosed according to the schedule in Table 5.
Dosing protocol: The frequency for oral administration was once daily and IV administration was twice weekly for two weeks; anti-PD-1 antibody was administered via IP route on Days 1, 5 and 9.
Tumor measurement: Tumor growth was measured thrice weekly using a digital Vernier caliper. Tumor volume was calculated as: Tumor Volume (TV)=[Length (L)×Width (W)2]/2 (where length is the largest diameter and width is the smallest diameter of the tumor)
Efficacy Evaluation: Tumor growth inhibition (TGI) was calculated as: […]
Data Analysis: Statistical analysis of the data was performed by One-way ANOVA followed by Dunnett's test using GraphPad Prism (version 5.03).

ENPP1 = molecular target: T1, ENPP1 (Homo sapiens, UniProt P22413); experiment: Capillary electrophoresis-based NPP assay with ATP as a substrate (ENPP1 inhibition, Ki); type: biochemical; settings: bin of Table 2; Ki from IC50 by Cheng-Prusoff, 400 μM ATP
T1 sequence (P22413 1-925): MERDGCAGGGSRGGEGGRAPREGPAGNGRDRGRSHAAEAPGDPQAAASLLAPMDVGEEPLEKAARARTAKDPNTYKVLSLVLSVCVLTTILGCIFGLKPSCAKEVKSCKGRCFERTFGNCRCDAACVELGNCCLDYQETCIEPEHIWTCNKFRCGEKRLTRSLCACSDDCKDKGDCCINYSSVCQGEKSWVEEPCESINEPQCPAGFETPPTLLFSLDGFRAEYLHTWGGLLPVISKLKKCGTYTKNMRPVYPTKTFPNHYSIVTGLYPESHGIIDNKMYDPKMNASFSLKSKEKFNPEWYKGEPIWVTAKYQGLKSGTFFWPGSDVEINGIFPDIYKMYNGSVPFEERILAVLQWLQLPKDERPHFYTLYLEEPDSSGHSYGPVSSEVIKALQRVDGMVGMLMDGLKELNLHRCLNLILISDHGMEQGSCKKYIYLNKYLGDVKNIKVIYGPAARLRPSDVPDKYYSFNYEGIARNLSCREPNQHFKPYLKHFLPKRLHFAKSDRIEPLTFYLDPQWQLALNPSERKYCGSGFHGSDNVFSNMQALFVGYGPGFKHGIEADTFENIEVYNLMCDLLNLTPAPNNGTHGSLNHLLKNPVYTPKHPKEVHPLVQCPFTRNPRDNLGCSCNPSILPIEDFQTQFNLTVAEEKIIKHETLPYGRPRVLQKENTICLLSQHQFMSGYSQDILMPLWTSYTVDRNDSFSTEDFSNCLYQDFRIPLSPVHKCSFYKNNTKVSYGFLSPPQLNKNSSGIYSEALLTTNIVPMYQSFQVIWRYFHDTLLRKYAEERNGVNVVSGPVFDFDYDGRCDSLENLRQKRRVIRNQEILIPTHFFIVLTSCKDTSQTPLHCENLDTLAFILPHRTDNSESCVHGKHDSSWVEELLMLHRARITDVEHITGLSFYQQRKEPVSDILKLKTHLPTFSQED
Procedure: Here, a Capillary Electrophoresis based method was used to determine the IC50 values for ENPP1 Inhibitors for ENNP1 protein.
The inhibitors synthesized were assessed for ENPP1 inhibitory potency against the natural substrate ATP. The enzyme inhibition assays were performed in 10 mM 2-(N-cyclohexylamino)-ethanesulfonic acid (CHES) buffer (pH 10.0) including 1 mM MgCl2, 2 mM CaCl2), and 400 μM of ATP, with different inhibitor concentrations. The reaction mixture was incubated with 20 ng human NPP1 at 37° C. for 30 min in a final volume of 100 μL, and the reactions were stopped by heating at 90° C. for 3 min. Finally, the reaction mixtures were directly measured by capillary electrophoresis (CE). The CE instrumentation and operating conditions were as follows: P/ACE MDQ capillary electrophoresis system (Beckman Instruments, Fullerton, Calif., USA) with a DAD detection system, polyacrylamide-coated capillaries of 40 cm effective length×[…] (id) obtained from CS Chromatographie GmbH (Langerwehe, Germany), 50 mM phosphate buffer (pH 6.5) as running buffer, electrokinetic injection (−6 kV, 60 s), separation voltage of −15 kV. The amounts of AMP produced were measured at 260 nm. Data collection and peak area analysis were performed by 32 Karat software obtained from Beckman Coulter (Fullerton, Calif., USA).
The IC50 values of test compounds were calculated by plotting data in the program Prism 5.0, and the Ki values were calculated from the IC50 values with the Cheng-Prusoff equation (Tables 2-4).

[1] = IV 2 mg/kg twice weekly + anti-PD-1 200 μg/animal IP Q4D x 3
[2] = PO 100 mg/kg QD x 14 + anti-PD-1 200 μg/animal IP Q4D x 3
[3] = IV 10 mg/kg twice weekly + anti-PD-1 200 μg/animal IP Q4D x 3
[4] = IV 10 mg/kg twice weekly, alone

pKi (ENPP1): ≥ 7.00
Structure (SMILES): Nc1nc(SCC(=O)Nc2ccc(O)c(C(=O)O)c2)c2[nH]cnc2n1 [Compound 155]
% TGI (vs Control) (LLC1 syngeneic tumor; [1]): 57%
Tumor volume (mm^3), Mean, Day 15 (LLC1 syngeneic tumor; [1]): 787 mm^3
% TGI (vs Control) (LLC1 syngeneic tumor; IV 2 mg/kg twice weekly, alone): 47%
Tumor volume (mm^3), Mean, Day 15 (LLC1 syngeneic tumor; IV 2 mg/kg twice weekly, alone): 956 mm^3
Reduction of tumor volume compared among the dosing groups of the compound (LLC1 syngeneic tumor): greatest reduction
% TGI (vs Control) (LLC1 syngeneic tumor; [2]): 44%
Tumor volume (mm^3), Mean, Day 15 (LLC1 syngeneic tumor; [2]): 1008 mm^3
% TGI (vs Control) (LLC1 syngeneic tumor; PO 100 mg/kg QD x 14, alone): 33%
Tumor volume (mm^3), Mean, Day 15 (LLC1 syngeneic tumor; PO 100 mg/kg QD x 14, alone): 1191 mm^3
Effect on tumor volume in the murine Lewis lung carcinoma model (LLC1 syngeneic tumor): reduced tumor volume
Tumor volume (mm^3), Mean ± SE, Day 1 (LLC1 syngeneic tumor; IV 2 mg/kg + anti-PD-1 group): 50 ± 1.4 mm^3
Tumor volume (mm^3), Mean ± SE, Day 1 (LLC1 syngeneic tumor; IV 2 mg/kg alone group): 51 ± 2.0 mm^3
Tumor volume (mm^3), Mean ± SE, Day 1 (LLC1 syngeneic tumor; PO 100 mg/kg + anti-PD-1 group): 50 ± 1.4 mm^3
Tumor volume (mm^3), Mean ± SE, Day 1 (LLC1 syngeneic tumor; PO 100 mg/kg alone group): 50 ± 1.4 mm^3

pKi (ENPP1): ≥ 7.00
Structure (SMILES): COc1cc(NC(=O)C(C)Sc2nc(N)nc3nc[nH]c23)ccc1O (stereo not shown) [Compound 173]
% TGI (vs Control) (LLC1 syngeneic tumor; [3]): 53%
Tumor volume (mm^3), Mean, Day 15 (LLC1 syngeneic tumor; [3]): 856 mm^3
% TGI (vs Control) (LLC1 syngeneic tumor; [4]): 48%
Tumor volume (mm^3), Mean, Day 15 (LLC1 syngeneic tumor; [4]): 926 mm^3
Reduction of tumor volume compared among the dosing groups of the compound (LLC1 syngeneic tumor): greatest reduction
% TGI (vs Control) (LLC1 syngeneic tumor; [2]): 47%
Tumor volume (mm^3), Mean, Day 15 (LLC1 syngeneic tumor; [2]): 945 mm^3
% TGI (vs Control) (LLC1 syngeneic tumor; PO 100 mg/kg QD x 14, alone): 37%
Tumor volume (mm^3), Mean, Day 15 (LLC1 syngeneic tumor; PO 100 mg/kg QD x 14, alone): 1126 mm^3
Effect on tumor volume in the murine Lewis lung carcinoma model (LLC1 syngeneic tumor): reduced tumor volume
Tumor volume (mm^3), Mean ± SE, Day 1 (LLC1 syngeneic tumor; IV 10 mg/kg + anti-PD-1 group): 50 ± 1.4 mm^3
Tumor volume (mm^3), Mean ± SE, Day 1 (LLC1 syngeneic tumor; IV 10 mg/kg alone group): 50 ± 1.3 mm^3
Tumor volume (mm^3), Mean ± SE, Day 1 (LLC1 syngeneic tumor; PO 100 mg/kg + anti-PD-1 group): 50 ± 1.4 mm^3
Tumor volume (mm^3), Mean ± SE, Day 1 (LLC1 syngeneic tumor; PO 100 mg/kg alone group): 50 ± 1.4 mm^3

Structure (SMILES): CCC(Sc1nc(N)nc2nc[nH]c12)C(=O)Nc1ccc(O)c(OC)c1 (stereo not shown) [Compound 174]
% TGI (vs Control) (LLC1 syngeneic tumor; [3]): 57%
Tumor volume (mm^3), Mean, Day 15 (LLC1 syngeneic tumor; [3]): 778 mm^3
% TGI (vs Control) (LLC1 syngeneic tumor; [4]): 48%
Tumor volume (mm^3), Mean, Day 15 (LLC1 syngeneic tumor; [4]): 930 mm^3
Reduction of tumor volume compared among the dosing groups of the compound (LLC1 syngeneic tumor): greatest reduction
% TGI (vs Control) (LLC1 syngeneic tumor; [2]): 60%
Tumor volume (mm^3), Mean, Day 15 (LLC1 syngeneic tumor; [2]): 724 mm^3
% TGI (vs Control) (LLC1 syngeneic tumor; PO 100 mg/kg QD x 14, alone): 52%
Tumor volume (mm^3), Mean ± SE, Day 1 (LLC1 syngeneic tumor; IV 10 mg/kg + anti-PD-1 group): 50 ± 1.2 mm^3
Tumor volume (mm^3), Mean ± SE, Day 1 (LLC1 syngeneic tumor; IV 10 mg/kg alone group): 50 ± 1.1 mm^3
Tumor volume (mm^3), Mean ± SE, Day 1 (LLC1 syngeneic tumor; PO 100 mg/kg + anti-PD-1 group): 50 ± 1.2 mm^3
Tumor volume (mm^3), Mean ± SE, Day 1 (LLC1 syngeneic tumor; PO 100 mg/kg alone group): 50 ± 1.3 mm^3

pKi (ENPP1): ≥ 7.00
Structure (SMILES): COc1nc(NC(=O)[C@H](Cc2ccccc2)Sc2nc(N)nc3nc[nH]c23)ncc1Br [Compound 555]

pKi (ENPP1): ≥ 7.00
Structure (SMILES): COc1nc(NC(=O)C2(Sc3nc(N)nc4nc[nH]c34)CCC2)ncc1Br [Compound 558]

pKi (ENPP1): ≥ 7.00
Structure (SMILES): CC[C@@H](Sc1nc(N)nc2nc[nH]c12)C(=O)Nc1ncc(Cl)c(OC)n1 [Compound 608]

pKi (ENPP1): ≥ 7.00
Structure (SMILES): CC[C@H](Sc1nc(N)nc2nc[nH]c12)C(=O)Nc1ncc(Cl)c(OC)n1 [Compound 609]

pKi (ENPP1): ≥ 7.00
Structure (SMILES): CCOc1nc(NC(=O)[C@H](CC)Sc2nc(N)nc3nc[nH]c23)ncc1F [Compound 673]

pKi (ENPP1): ≥ 7.00
Structure (SMILES): CCOc1nc(NC(=O)[C@H](CC)Sc2nc(N)nc3nc[nH]c23)ncc1Cl [Compound 677]

pKi (ENPP1): ≥ 7.00
Structure (SMILES): CCOc1nc(NC(=O)[C@H](CC)Sc2nc(N)nc3nc[nH]c23)ncc1Br [Compound 678]

pKi (ENPP1): ≥ 7.00
Structure (SMILES): CCOc1nc(NC(=O)[C@@H](Sc2nc(N)nc3nc[nH]c23)C(C)C)ncc1F [Compound 679]

pKi (ENPP1): ≥ 7.00
Structure (SMILES): CCOc1nc(NC(=O)[C@@H](Sc2nc(N)nc3nc[nH]c23)C(C)C)ncc1Br [Compound 681]

pKi (ENPP1): ≥ 7.00
Structure (SMILES): CCOc1nc(NC(=O)[C@@H](CC)Sc2nc(N)nc3nc[nH]c23)ncc1Br [Compound 712]
